Results on five molecules are retold here after US20060153936A1, “Flavonoid solubilizing agent and method of solubilizing flavonoid” (priority 2003, published 2006).

Data set [1] in a line: Storage stability of baicalin supernatant at 10° C., visual examination (Example 1). The class given is physicochemical. The note with it: baicalin supernatant without additive, 95° C. 15 minutes, stored 10° C. one month. The procedure:
Further, the supernatant was placed in a test tube and, after it was pasteurized by heating at 95° C. for 15 minutes, it was stored at 10° C. for one month to observe the formation of a precipitate by visual examination.

A short description of data set [2]: Baicalin dissolution amount with solubilizing agent (Example 1). It is filed as physicochemical. The following applies: without additive; baicalin 100 mg in ultrapure water 10 mL; 80° C. one hour, equilibrated 10° C. 48 hours. Here is the method:
Then, after the mixture was equilibrated at 10° C. for 48 hours, the supernatant was collected by centrifugation. The OD254 of the supernatant was measured and the dissolution amount of baicalin was calculated by the following equation 1. baicalin dissolution amount (mg/100 mL)=(OD254 in sample supernatant−OD254 in control supernatant)/baicalin specific absorbance×1000

Data set [3] in a line: Hesperidin dissolution amount with solubilizing agent (Example 3). The class given is physicochemical. The note with it: without additive; hesperidin 100 mg in ultrapure water 10 mL; 80° C. one hour, equilibrated 10° C. 48 hours. The procedure:
Then, after it was equilibrated at 10° C. for 48 hours, the supernatant was collected by centrifugation. The OD254 of the supernatant was measured and a hesperidin dissolution amount was calculated by the following equation 3. hesperidin dissolution amount (mg/100 mL)=(OD254 in sample supernatant−OD254 in control supernatant)/hesperidin specific absorbance×1000

The nature of data set [4]: Storage stability of hesperidin supernatant at 10° C., visual examination (Example 3). The class given is physicochemical. The note with it: hesperidin supernatant without additive, 95° C. 15 minutes, stored 10° C. one month. The procedure: (§1) Further, the supernatant was placed in a test tube, and after it was pasteurized by heating at 95° C. for 15 minutes, it was stored at 10° C. for one month to observe the formation of a precipitate by visual examination.

Data set [5] is classed as physicochemical. Here is the method: (§2) Ultrapure water 1 mL was added to a commercially available soybean isoflavone (trade name “Honen Isoflavone-80”, manufactured by Honen Corporation) 12.5 mg (10 mg of isoflavone glycoside) and a commercially available malonyl isoflavone glycoside, malonyl daidzin (purity: 90% or more, manufactured by Wako Pure Chemicals, Co., Ltd.) 1 mg, and the mixture was stirred at 25° C. for one hour. Then, after it was equilibrated at 10° C. for 48 hours, the supernatant was collected by centrifugation and an isoflavone dissolution amount was measured by HPLC. Further, the supernatant was placed in a test tube, it was stored as such at 10° C. for one month to observe the formation of a precipitate by visual examination.

The nature of data set [6]: Isoflavone dissolution amount by HPLC with malonyl daidzin (Example 6). It is filed as physicochemical. The note with it: for dissolution amount of malonyl daidzin itself: share of malonyl daidzin in the isoflavone amount of the supernatant, 10° C. Here is the method: as §2
Data set [7] in a line: Storage stability of naringin supernatant at 10° C., visual examination (Example 4). The note with it: naringin supernatant without additive, 95° C. 15 minutes, stored 10° C. one month. The class given is physicochemical. The procedure: as §1
A short description of data set [8]: Naringin dissolution amount with solubilizing agent (Example 4). It is filed as physicochemical. The note with it: without additive; naringin 100 mg in ultrapure water 10 mL; 80° C. one hour, equilibrated 10° C. 48 hours. The procedure:
Ultrapure water 10 mL was added to commercially available naringin (flavanones, purity: 95% or more, manufactured by Sigma Inc.) 100 mg and the same solubilizing agent as that used in Example 1, and the mixture was stirred at 80° C. for one hour. Then, after it was equilibrated at 10° C. for 48 hours, the supernatant was collected by centrifugation. The OD254 in the supernatant was measured and a naringin dissolution amount was calculated by the following equation 4. naringin dissolution amount (mg/100 mL)=(OD254 in sample supernatant−OD254 in control supernatant)/naringin specific absorbance×1000

Data set [9] in a line: Storage stability of rutin supernatant at 10° C., visual examination (Example 2). The note with it: rutin supernatant without additive, 95° C. 15 minutes, stored 10° C. one month. It is filed as physicochemical. The procedure: Further, the supernatant was placed in a test tube, after it was pasteurized by heating at 95° C. for 15 minutes, it was stored at 10° C. for one month to observe the formation of a precipitate by visual examination.

The structures appear in SMILES notation. Like-named read-outs stand apart in the source and are kept apart here.

As for `O=C(O)[C@H]1O[C@@H](Oc2cc3oc(-c4ccccc4)cc(=O)c3c(O)c2O)[C@H](O)[C@@H](O)[C@@H]1O` [Baicalin, baicalin], the “Storage stability (10° C.)” value in data set [1] is given as “precipitate”. Further, in [2], the Baicalin dissolution amount was found to be 12.4 mg/100 mL.

In turn, `COc1ccc([C@@H]2CC(=O)c3c(O)cc(O[C@@H]4O[C@H](CO[C@@H]5O[C@@H](C)[C@H](O)[C@@H](O)[C@H]5O)[C@@H](O)[C@H](O)[C@H]4O)cc3O2)cc1O` [Hesperidin, hesperidin] returned a Hesperidin dissolution amount in data set [3] of 8.6 mg/100 mL. Further, the “Storage stability (10° C.)” value in data set [4] is given as “precipitate”.

Take `O=C(O)CC(=O)OC[C@H]1O[C@@H](Oc2ccc3c(=O)c(-c4ccc(O)cc4)coc3c2)[C@H](O)[C@@H](O)[C@@H]1O` [Malonyl daidzin, malonyl daidzin]: the “Storage stability (10° C.)” value in data set [5] is “No precipitate”. In [6] (Honen Isoflavone-80 12.5 mg + malonyl daidzin 1 mg in ultrapure water 1 mL, 25° C. one hour, equilibrated 10° C. 48 hours, HPLC, total including malonyl daidzin), the Isoflavone amount amounted to 106.3 mg/100 mL. For the same molecule, in data set [6] (in the co-presence of malonyl daidzin, malonyl daidzin's own amount deducted), the “solubilizing magnifying power of the isoflavone glycoside” value amounted to 2.9 fold. Besides, the “dissolution amount of malonyl daidzin itself” value is “(including 56.9 of mg/100 mL” in data set [6] (HPLC) and 56.9 mg/100 mL in data set [6] (HPLC, listed as malonyl daidzin).

Turning to `C[C@@H]1O[C@@H](O[C@H]2[C@H](Oc3cc(O)c4c(c3)O[C@H](c3ccc(O)cc3)CC4=O)O[C@H](CO)[C@@H](O)[C@@H]2O)[C@H](O)[C@H](O)[C@H]1O` [Naringin, naringin], the “Storage stability (10° C.)” value in [7] is recorded as “precipitate”. Further, in data set [8], the Naringin dissolution amount worked out at 68.0 mg/100 mL.

As for `C[C@@H]1O[C@@H](OC[C@H]2O[C@@H](Oc3c(-c4ccc(O)c(O)c4)oc4cc(O)cc(O)c4c3=O)[C@H](O)[C@@H](O)[C@@H]2O)[C@H](O)[C@H](O)[C@H]1O` [Rutin, rutin], the “Storage stability (10° C.)” value in data set [9] is given as “precipitate”.
